Reference: the supplement of paper PMC10307832

Experiments:
Assay in all cases: relative viability (nuclei count vs DMSO), 5 days (fraction); higher = more cells survive
[1] = compound: COC1=CC(c2cc3ccccc3[nH]2)=N/C1=C\c1[nH]c(C)cc1C [Obatoclax] + COc1cccc2cc(-c3nc([C@H]4CC[C@H](C(=O)O)CC4)n4ncnc(N)c34)[nH]c12 [OSI-027] (partner 0.5 µM)
Procedure, shortened: (§1)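 After 5 days of treatment, lung cancer cells in 1536-well plates were fixed and stained in a single step (final 0.05% Triton X-100, 1% formaldehyde, 1 ug/ml Hoechst) and their nuclei counted on 4× images. Treatment had been applied by pin tool the day after seeding as one drug alone or as a fixed anchor-drug dose with five library-drug doses (not always all listed) in √10 steps. Relative viability is the nuclei count of treated wells divided by that of vehicle wells, and values are medians of duplicate plates.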

[2] = compound: CC1=CC(=NN1)NC2=CC(=NC(=N2)/C=C/C3=CC=CC=C3)N4CCN(CC4)C + CCNC(=O)c1noc(-c2cc(C(C)C)c(O)cc2O)c1-c1ccc(CN2CCOCC2)cc1 [Luminespib] (partner 0.01 µM)
Procedure, shortened: as §1

[3] = compound: CC1=CC(=NN1)NC2=CC(=NC(=N2)/C=C/C3=CC=CC=C3)N4CCN(CC4)C + COc1cccc2cc(-c3nc([C@H]4CC[C@H](C(=O)O)CC4)n4ncnc(N)c34)[nH]c12 [OSI-027] (partner 0.5 µM)
Procedure, shortened: as §1

[4] = compound: CC(C)C[C@H](NC(=O)[C@H](Cc1ccccc1)NC(=O)c1cnccn1)B(O)O [Bortezomib] + O=C(CCCCCCC(=O)Nc1ccccc1)NO [Vorinostat] (partner 1 µM)
Procedure, shortened: as §1

Row | Cell Line | relative viability ([1]; first compound 0.01 µM) | relative viability ([1]; first compound 0.03162 µM) | relative viability ([1]; first compound 0.1 µM) | relative viability ([1]; first compound 0.3162 µM) | relative viability ([1]; first compound 1 µM) | relative viability ([2]; first compound 0.08 µM) | relative viability ([2]; first compound 0.253 µM) | relative viability ([2]; first compound 0.8 µM) | relative viability ([2]; first compound 2.53 µM) | relative viability ([2]; first compound 8 µM) | relative viability ([3]; first compound 0.08 µM) | relative viability ([3]; first compound 0.253 µM) | relative viability ([3]; first compound 0.8 µM) | relative viability ([3]; first compound 2.53 µM) | relative viability ([3]; first compound 8 µM) | relative viability ([4]; first compound 0.0002 µM) | relative viability ([4]; first compound 0.000632 µM) | relative viability ([4]; first compound 0.002 µM) | relative viability ([4]; first compound 0.006325 µM) | relative viability ([4]; first compound 0.02 µM)
1 | UMC-11 | 0.465 | 0.504 | 0.48 | 0.379 | 0.285 | 0.903 | 0.996 | 0.715 | 0.182 | 0.125 | 0.494 | 0.458 | 0.339 | 0.141 | 0.133 | 0.365 | 0.399 | 0.41 | 0.112 | 0.0837
2 | HCC-827 | 0.846 | 0.733 | 0.806 | 0.675 | 0.778 | 0.577 | 0.673 | 0.587 | 0.441 | 0.236 | 0.778 | 0.865 | 0.716 | 0.742 | 0.588 | 0.802 | 0.883 | 0.799 | 0.814 | 0.182
3 | NCI-H1993 | 0.501 | 0.551 | 0.623 | 0.526 | 0.528 | 0.882 | 0.944 | 0.843 | 0.779 | 0.391 | 0.514 | 0.484 | 0.478 | 0.457 | 0.414 | 0.894 | 0.987 | 0.605 | 0.258 | 0.266
4 | NCI-H647 | 0.606 | 0.692 | 0.585 | 0.346 | 0.184 | 0.308 | 0.267 | 0.104 | 0.172 | 0.0506 | 0.706 | 0.628 | 0.668 | 0.13 | 0.0671 | 0.492 | 0.583 | 0.0536 | 0.0218 | 0.0184
5 | NCI-H522 | 0.7 | 0.718 | 0.71 | 0.734 | 0.775 | 0.957 | 0.995 | 1.15 | 0.845 | 0.507 | 0.709 | 0.629 | 0.609 | 0.56 | 0.421 | 0.824 | 0.818 | 0.976 | 0.446 | 0.334
6 | NCI-H460 | 0.697 | 0.703 | 0.635 | 0.0709 | 0.0443 | 0.0265 | 0.0399 | 0.0277 | 0.0233 | 0.0124 | 0.696 | 0.606 | 0.578 | 0.0297 | 0.0153 | 0.668 | 0.678 | 0.857 | 0.0257 | 0.0172
7 | EMC-BAC-2 | 0.413 | 0.382 | 0.297 | 0.332 | 0.299 | 1.2 | 1.21 | 1.15 | 0.733 | 0.271 | 0.364 | 0.426 | 0.32 | 0.226 | 0.097 | 0.402 | 0.467 | 0.409 | 0.155 | 0.143
8 | NCI-H23 | 0.632 | 0.62 | 0.626 | 0.503 | 0.243 | 0.183 | 0.206 | 0.197 | 0.212 | 0.205 | 0.417 | 0.563 | 0.539 | 0.291 | 0.115 | 0.603 | – | 0.495 | 0.132 | 0.0977
9 | A-427 | 0.513 | 0.462 | 0.49 | 0.418 | 0.399 | 0.775 | 0.984 | 0.873 | 0.361 | 0.105 | 0.531 | 0.295 | 0.466 | 0.192 | 0.0905 | 0.845 | 0.878 | 0.833 | 0.185 | 0.153
10 | ABC-1 | 0.576 | 0.571 | 0.424 | 0.373 | 0.276 | 0.497 | 0.51 | 0.961 | 0.701 | 0.19 | 0.453 | 0.54 | 0.644 | 0.179 | 0.143 | 0.689 | 0.415 | 0.288 | 0.29 | 0.312
11 | NCI-H322M | 0.531 | 0.338 | – | 0.462 | 0.386 | 0.8 | 1.06 | 0.639 | 0.326 | 0.246 | 0.504 | 0.546 | 0.538 | 0.364 | 0.278 | 0.841 | 0.696 | 0.826 | 0.393 | 0.491
12 | COR-L23 | 0.715 | 0.853 | 0.786 | 0.405 | 0.177 | 0.723 | 0.813 | 0.593 | 0.398 | 0.0972 | 0.817 | 0.753 | 0.67 | 0.361 | 0.0841 | 0.474 | 0.446 | 0.192 | 0.0554 | 0.0587
13 | SK-MES-1 | 0.607 | 0.611 | 0.529 | 0.456 | 0.179 | 0.61 | 0.888 | 0.391 | 0.144 | 0.131 | 0.604 | 0.617 | 0.524 | 0.139 | 0.103 | 1.08 | 1.1 | 1 | 0.164 | 0.158
14 | NCI-H2085 | 0.818 | 0.917 | 0.587 | 0.506 | 0.359 | 0.358 | 0.417 | 0.438 | 0.318 | 0.184 | 0.728 | 0.755 | 0.758 | 0.334 | 0.193 | 0.753 | 0.78 | 0.83 | 0.255 | 0.217
15 | NCI-H2087 | 0.768 | 0.525 | 0.529 | 0.333 | 0.159 | 0.209 | 0.212 | 0.158 | 0.119 | 0.136 | 0.622 | 0.295 | 0.537 | 0.196 | 0.109 | 0.465 | 0.886 | 0.555 | 0.0577 | 0.0279
16 | NCI-H2126 | 0.766 | 0.546 | 0.878 | 0.651 | 0.736 | 0.934 | 1.01 | 0.882 | 0.812 | 0.224 | 0.74 | 0.747 | 0.675 | 0.596 | 0.37 | 0.693 | 0.875 | 0.751 | 0.641 | 0.478
